ChEMBL document CHEMBL1201862, “PubChem BioAssay data set” (2004)
The source made the active and inactive calls.

Columns and labels:
[1] = cells; type: functional, cell-based
[2] = target: Nuclear receptor subfamily 0 group B member 1 (Homo sapiens, UniProt P51843); type: functional, cell-based;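 note: HEK293T cells transfected with SF-1 and DAX-1 plus StAR promoter luciferase reporter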
[3] = target: Paired box protein Pax-8 (Homo sapiens, UniProt Q06710); experiment: inhibitors of PAX8-driven TPO luciferase reporter, dose response, RMG-I cells, cherry-pick (AID 687027); type: functional, cell-based;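 note: luciferase reporter driven by Pax8 target thyroperoxidase promoter measured by SteadyGlo luminescence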
Chain of Paired box protein Pax-8 (Q06710 whole entry): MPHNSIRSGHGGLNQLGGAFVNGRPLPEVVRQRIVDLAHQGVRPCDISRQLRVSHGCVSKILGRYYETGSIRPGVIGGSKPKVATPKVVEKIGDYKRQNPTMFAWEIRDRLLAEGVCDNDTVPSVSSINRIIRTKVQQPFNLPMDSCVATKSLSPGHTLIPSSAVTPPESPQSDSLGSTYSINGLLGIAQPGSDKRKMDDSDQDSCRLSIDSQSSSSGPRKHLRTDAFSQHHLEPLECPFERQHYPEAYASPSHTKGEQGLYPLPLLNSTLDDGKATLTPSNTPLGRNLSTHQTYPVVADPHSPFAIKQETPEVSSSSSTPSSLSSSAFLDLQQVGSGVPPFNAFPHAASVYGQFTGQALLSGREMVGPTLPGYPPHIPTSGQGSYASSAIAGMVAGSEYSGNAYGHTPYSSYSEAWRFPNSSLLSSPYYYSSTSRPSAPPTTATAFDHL

[4] = A2780 ovarian cancer cell cytotoxicity, dose response, cytotoxicity control, plate reader, dry powder samples (AID 743046); type: functional, cell-based
[5] = NIH:OVCAR-3 ovarian cancer cell cytotoxicity, dose response, PAX8 inhibitor project, plate reader, dry powder samples (AID 743044); type: functional, cell-based
[6] = IGROV1 ovarian cancer cell cytotoxicity, dose response, PAX8 inhibitor project, plate reader, dry powder samples (AID 743043); type: functional, cell-based; conditions: IGROV-1
[7] = non-specific cell cytotoxicity, dose response, cytotoxicity control for PAX8 inhibitor project, plate reader, dry powder samples (AID 743021); type: functional, cell-based
[8] = cytotoxicity in OVCAR8 ovarian cancer cells, dose response, PAX8 project, cell-based, plate reader, dry powder samples (AID 743197); type: functional; conditions: OVCAR-8
[9] = HepG2 cell cytotoxicity, dose response, cytotoxicity control, ATP luminescence, cherry-pick, set 6 (AID 1053125); type: functional, cell-based
[10] = target: Tyrosyl-DNA phosphodiesterase 2 (Homo sapiens, UniProt O95551); experiment: human TDP2 enzyme inhibitors, dose response, biochemical, epi absorbance, IC50 (AID 743297)
Chain of Tyrosyl-DNA phosphodiesterase 2 (O95551 whole entry): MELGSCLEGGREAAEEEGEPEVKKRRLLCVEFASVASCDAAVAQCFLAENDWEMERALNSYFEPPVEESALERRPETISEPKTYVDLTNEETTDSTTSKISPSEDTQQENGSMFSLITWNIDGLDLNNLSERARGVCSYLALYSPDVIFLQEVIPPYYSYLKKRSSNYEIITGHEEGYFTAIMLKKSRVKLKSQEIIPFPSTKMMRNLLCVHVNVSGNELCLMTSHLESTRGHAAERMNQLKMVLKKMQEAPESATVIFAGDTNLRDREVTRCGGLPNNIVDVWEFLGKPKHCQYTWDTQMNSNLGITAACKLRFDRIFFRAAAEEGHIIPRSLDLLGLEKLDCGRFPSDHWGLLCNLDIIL

[11] = Counterscreen for […] of the human trace amine associated receptor 1 (TAAR1): Fluorescence-based cell-based high throughput dose response assay to identify nonselective Ga16 agonists.; type: functional
[12] = Counterscreen for antagonists of the human trace amine associated receptor 1 (hTAAR1): Fluorescence-based cell-based high throughput dose response assay to identify nonselective Ga16 antagonists.; type: functional
[13] = growth suppression of PTEN-null colon cells, dose response, cell-based, HCT116 PTEN knockout (AID 1047); type: functional;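 note: HCT116 colon tumor cells with PTEN knocked out; cells exposed to compound for 60 hours before readout; potency for loss of cell viability measured by luminescence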
[14] = growth suppression of beta-catenin-knockout colon cells, dose response, cell-based, HCT116, human colon tumor (AID 1045); type: functional;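 note: HCT116 colon tumor cells with beta catenin knocked out; cells exposed to compound for 60 hours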
[15] = Artemis endonuclease inhibitor potency, dose response, biochemical, fluorescence intensity (AID 720701); type: functional;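 note: Artemis endonuclease enzyme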
[16] = target: Matrix metalloproteinase-14 (Homo sapiens, UniProt P50281); experiment: Dose Response confirmation of uHTS hits for a small molecule inhibitors of MT1-MMP activation in a fluorescence assay set 1.; type: functional
[17] = T. cruzi growth inhibition in host cells, dose response, cell-based, plate reader, dry powder, set 2 (AID 652275); type: functional
[18] = system: BHK-21; experiment: BHK-21 cell toxicity, dose response, cytotoxicity control, plate reader, cherry-pick samples (AID 687030); type: functional, cell-based; conditions: Mesocricetus auratus
[19] = target: NAD-dependent protein deacylase sirtuin-5, mitochondrial (Homo sapiens, UniProt Q9NXA8); experiment: SIRT5 deacylase inhibitors, dose response, biochemical, fluorescence imaging, cherry-pick, set 6 (AID 720597)
Chain of NAD-dependent protein deacylase sirtuin-5, mitochondrial (Q9NXA8 whole entry): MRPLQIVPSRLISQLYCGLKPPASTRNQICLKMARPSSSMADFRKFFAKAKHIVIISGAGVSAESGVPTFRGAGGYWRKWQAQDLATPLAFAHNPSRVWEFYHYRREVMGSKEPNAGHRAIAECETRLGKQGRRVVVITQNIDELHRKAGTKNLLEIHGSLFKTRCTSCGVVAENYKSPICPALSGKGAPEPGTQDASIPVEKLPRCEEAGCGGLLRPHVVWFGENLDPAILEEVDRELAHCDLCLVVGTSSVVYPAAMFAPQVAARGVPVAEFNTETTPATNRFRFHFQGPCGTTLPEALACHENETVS

[20] = THP-1 cell cytotoxicity, dose response, cytotoxicity control for Vif-APOBEC3G degradation inhibitor project, THP-1 cells (AID 1117359); type: functional; conditions: Human immunodeficiency virus 1, THP-1

Chain of Nuclear receptor subfamily 0 group B member 1 (P51843 whole entry): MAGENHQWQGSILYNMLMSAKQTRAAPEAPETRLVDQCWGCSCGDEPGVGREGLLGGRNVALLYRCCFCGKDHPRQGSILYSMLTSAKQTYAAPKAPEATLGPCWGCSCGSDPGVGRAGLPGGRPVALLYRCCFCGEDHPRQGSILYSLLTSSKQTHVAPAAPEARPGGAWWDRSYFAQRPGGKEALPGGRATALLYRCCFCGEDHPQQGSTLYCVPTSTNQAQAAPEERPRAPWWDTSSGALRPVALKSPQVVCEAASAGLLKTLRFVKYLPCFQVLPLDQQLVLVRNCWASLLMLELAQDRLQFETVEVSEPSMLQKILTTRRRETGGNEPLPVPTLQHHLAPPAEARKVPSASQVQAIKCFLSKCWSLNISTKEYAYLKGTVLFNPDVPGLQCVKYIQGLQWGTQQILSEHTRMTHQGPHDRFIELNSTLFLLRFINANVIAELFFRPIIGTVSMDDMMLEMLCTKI

C=C1CCCC2OC(CC3=CC4/C(C)=C/CC(C)CC(/C=C(\C)C(O)C5CC(O)C(O)C(CCC(O)/C=C/C(C)=C/CCC6=NCCC(C3)C64C)O5)OC(=O)CC3OC(C(O)C1)C(O)C3O)CC(O)C2O (stereo not given)
IC50 [1]: > 67.5 µM (inactive)
IC50 [2]: > 67.5 µM (inactive)

C[C@@H]1CN([C@H](C)CO)C(=O)c2cc(NC(=O)Nc3ccc(C(F)(F)F)cc3)ccc2O[C@@H](C)CCCCO[C@@H]1CN(C)Cc1ccccc1
AC50 [3]: 6.4 µM (active)
AC50 [4]: 22.3 µM (active)
AC50 [5]: 23 µM (active)
AC50 [6]: 40.2 µM (active)
AC50 [7]: 68 µM (active)
AC50 [8]: 21.5 µM (active)

Cc1c(C(=O)NCc2ccc3c(c2)OCCO3)sc(=O)n1Cc1ccccc1F
AC50 [9]: > 52 µM (inactive)

CCOc1ccc(NC2=CC(=O)C(=O)c3ccccc32)cc1
IC50 [10]: > 128 µM (inactive)

CC(=O)c1ccc(NC(=O)c2ccc(COc3ccccc3[N+](=O)[O-])o2)cc1
EC50 [11]: > 29.9 µM (inactive)
IC50 [12]: > 29.9 µM (inactive)

COc1ccc(Nc2nc(Nc3ccc(OC)cc3)nc(SC3=NCCS3)n2)cc1
EC50 [13]: 40.1 µM (active)
EC50 [14]: 71.1 µM (active)
IC50 [15]: 1.68 µM (active)

CC(=O)Oc1ccc2oc(/C=C/N(C)C)c([N+](=O)[O-])c2c1
IC50 [16]: 56.8 µM (inactive)

O=C(C1CCCC1)N1CCCCN2[C@@H](CO)[C@H](c3ccc(-c4cccc(F)c4)cc3)[C@@H]2C1
AC50 [17]: 0.121 µM (active)

CCNC(=O)C[C@H]1CC[C@@H]2[C@H](COC[C@H](O)CN2Cc2ccc(Cl)c(Cl)c2)O1
AC50 [18]: 36.8 µM (active)

Cc1noc(C)c1S(=O)(=O)Nc1ccc2c(c1)C(=O)N([C@@H](C)CO)C[C@H](C)[C@@H](CN(C)Cc1ccc(C(F)(F)F)cc1)OCCCC[C@H](C)O2
AC50 [19]: 12.2 µM (active)
CC50 [20]: 16.7 µM (active)
